Measurements from ChEMBL document CHEMBL3991601, “The target landscape of clinical kinase drugs” (Science, 2017).
The source made the active and inactive calls. For most assays here, no stated cut-off is given here; in the data, actives have a measured Kd and inactives only a lower limit.

What was measured:
[1] = target: T1, Bifunctional phosphoribosylaminoimidazole carboxylase/phosphoribosylaminoimidazole succinocarboxamide synthetase (Homo sapiens, UniProt P22234)
T1 sequence (P22234 whole entry): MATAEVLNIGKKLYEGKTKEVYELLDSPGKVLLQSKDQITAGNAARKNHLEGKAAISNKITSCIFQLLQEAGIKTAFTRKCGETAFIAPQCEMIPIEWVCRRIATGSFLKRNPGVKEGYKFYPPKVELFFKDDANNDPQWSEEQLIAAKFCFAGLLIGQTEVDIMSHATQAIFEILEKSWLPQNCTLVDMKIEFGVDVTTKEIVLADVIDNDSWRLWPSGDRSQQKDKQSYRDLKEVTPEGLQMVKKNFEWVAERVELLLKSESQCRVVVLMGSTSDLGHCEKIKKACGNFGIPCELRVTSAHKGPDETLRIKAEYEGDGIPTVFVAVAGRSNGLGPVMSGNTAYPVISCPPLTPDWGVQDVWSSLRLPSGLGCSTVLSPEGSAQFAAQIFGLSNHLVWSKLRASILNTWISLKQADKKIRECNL

Myosin-14 = Myosin-14 (Homo sapiens, UniProt Q7Z406)
Chain of Myosin-14 (Q7Z406 whole entry): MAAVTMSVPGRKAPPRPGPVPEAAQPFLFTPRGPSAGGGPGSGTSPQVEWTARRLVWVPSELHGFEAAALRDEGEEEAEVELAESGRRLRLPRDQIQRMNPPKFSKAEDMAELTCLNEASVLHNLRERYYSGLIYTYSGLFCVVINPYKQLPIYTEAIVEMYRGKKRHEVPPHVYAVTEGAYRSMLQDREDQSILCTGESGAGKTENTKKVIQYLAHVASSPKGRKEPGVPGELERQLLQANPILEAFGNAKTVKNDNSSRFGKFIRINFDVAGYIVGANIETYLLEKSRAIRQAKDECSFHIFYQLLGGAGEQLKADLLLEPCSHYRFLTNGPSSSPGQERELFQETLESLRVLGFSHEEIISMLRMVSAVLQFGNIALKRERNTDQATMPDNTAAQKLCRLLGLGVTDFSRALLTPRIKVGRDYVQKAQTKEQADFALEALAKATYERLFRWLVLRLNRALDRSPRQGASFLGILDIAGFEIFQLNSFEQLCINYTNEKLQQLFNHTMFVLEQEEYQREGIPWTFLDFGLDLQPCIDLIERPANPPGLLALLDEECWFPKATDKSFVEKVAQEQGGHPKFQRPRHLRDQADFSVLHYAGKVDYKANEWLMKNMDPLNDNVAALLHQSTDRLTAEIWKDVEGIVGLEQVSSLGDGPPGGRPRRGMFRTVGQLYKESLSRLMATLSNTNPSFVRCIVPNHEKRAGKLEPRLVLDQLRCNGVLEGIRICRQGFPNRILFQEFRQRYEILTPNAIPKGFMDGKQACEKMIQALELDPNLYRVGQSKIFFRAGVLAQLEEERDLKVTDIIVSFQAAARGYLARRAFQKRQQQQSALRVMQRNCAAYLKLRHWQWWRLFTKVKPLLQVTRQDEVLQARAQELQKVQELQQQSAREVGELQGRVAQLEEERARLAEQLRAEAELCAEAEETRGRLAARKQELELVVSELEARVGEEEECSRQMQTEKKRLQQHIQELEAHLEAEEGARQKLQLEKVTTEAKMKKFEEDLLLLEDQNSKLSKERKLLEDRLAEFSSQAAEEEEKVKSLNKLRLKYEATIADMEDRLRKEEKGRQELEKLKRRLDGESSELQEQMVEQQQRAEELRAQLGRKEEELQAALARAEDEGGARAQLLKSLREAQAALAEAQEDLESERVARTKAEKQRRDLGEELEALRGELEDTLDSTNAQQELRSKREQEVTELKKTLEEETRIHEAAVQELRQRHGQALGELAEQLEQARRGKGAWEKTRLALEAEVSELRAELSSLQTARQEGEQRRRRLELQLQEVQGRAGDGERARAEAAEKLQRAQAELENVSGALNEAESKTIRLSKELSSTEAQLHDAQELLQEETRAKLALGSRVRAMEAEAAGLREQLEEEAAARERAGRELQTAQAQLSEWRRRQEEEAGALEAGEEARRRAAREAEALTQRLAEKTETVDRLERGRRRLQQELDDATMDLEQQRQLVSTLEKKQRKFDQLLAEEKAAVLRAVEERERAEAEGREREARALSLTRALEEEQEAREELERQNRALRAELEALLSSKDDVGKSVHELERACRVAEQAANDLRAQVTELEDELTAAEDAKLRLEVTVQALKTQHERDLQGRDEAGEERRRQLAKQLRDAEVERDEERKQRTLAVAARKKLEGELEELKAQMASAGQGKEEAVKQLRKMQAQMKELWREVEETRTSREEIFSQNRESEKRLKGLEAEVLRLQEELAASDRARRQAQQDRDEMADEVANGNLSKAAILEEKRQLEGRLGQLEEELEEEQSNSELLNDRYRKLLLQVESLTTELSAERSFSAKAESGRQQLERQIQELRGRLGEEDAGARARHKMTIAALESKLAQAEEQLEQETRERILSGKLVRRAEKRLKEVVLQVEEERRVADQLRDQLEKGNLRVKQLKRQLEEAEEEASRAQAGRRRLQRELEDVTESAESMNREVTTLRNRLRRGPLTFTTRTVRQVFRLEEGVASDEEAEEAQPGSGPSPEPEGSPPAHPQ

[2] = target: T2, Long-chain-fatty-acid--CoA ligase 5 (Homo sapiens, UniProt Q9ULC5)
T2 sequence (Q9ULC5 whole entry): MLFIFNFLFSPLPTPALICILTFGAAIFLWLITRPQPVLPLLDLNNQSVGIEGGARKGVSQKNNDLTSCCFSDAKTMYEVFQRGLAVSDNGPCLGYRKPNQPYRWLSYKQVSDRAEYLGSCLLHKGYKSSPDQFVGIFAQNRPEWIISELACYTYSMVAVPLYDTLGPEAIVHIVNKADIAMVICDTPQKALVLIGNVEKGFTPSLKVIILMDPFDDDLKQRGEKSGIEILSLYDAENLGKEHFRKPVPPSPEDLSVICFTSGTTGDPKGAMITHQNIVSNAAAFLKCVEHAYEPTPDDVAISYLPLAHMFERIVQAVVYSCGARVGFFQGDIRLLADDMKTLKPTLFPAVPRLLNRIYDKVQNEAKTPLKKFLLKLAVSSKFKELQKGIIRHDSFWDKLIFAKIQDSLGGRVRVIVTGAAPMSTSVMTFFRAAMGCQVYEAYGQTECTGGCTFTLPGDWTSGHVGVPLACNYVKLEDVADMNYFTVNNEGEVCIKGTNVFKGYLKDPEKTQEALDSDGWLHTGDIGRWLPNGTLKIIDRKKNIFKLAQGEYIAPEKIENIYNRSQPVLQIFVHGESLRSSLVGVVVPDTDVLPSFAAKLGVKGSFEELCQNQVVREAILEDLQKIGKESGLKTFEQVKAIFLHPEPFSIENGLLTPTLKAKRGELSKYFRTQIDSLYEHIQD

[3] = target: Ribosomal protein S6 kinase alpha-4 (Homo sapiens, UniProt O75676)
Chain of Ribosomal protein S6 kinase alpha-4 (O75676 whole entry): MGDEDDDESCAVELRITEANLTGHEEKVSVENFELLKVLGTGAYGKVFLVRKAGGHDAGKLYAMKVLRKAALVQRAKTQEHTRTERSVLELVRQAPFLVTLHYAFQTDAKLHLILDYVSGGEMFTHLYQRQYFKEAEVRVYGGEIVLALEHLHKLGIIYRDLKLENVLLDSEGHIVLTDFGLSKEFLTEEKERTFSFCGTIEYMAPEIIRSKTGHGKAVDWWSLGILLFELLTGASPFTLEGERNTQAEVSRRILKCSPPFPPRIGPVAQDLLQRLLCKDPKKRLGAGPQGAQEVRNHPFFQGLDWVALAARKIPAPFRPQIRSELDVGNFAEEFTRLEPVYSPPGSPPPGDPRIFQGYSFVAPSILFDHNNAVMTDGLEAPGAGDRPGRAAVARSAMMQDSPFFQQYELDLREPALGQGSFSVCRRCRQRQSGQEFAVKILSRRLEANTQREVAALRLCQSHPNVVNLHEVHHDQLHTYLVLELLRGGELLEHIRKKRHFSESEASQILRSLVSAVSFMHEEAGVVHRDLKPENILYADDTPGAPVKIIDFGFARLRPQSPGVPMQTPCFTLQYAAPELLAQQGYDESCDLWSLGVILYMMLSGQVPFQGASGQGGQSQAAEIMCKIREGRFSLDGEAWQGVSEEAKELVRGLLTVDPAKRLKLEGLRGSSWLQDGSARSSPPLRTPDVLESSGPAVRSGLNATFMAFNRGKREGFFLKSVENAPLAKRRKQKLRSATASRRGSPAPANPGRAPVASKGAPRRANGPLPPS

[4] = target: Mitogen-activated protein kinase kinase kinase 4 (Homo sapiens, UniProt Q9Y6R4)
Chain of Mitogen-activated protein kinase kinase kinase 4 (Q9Y6R4 whole entry): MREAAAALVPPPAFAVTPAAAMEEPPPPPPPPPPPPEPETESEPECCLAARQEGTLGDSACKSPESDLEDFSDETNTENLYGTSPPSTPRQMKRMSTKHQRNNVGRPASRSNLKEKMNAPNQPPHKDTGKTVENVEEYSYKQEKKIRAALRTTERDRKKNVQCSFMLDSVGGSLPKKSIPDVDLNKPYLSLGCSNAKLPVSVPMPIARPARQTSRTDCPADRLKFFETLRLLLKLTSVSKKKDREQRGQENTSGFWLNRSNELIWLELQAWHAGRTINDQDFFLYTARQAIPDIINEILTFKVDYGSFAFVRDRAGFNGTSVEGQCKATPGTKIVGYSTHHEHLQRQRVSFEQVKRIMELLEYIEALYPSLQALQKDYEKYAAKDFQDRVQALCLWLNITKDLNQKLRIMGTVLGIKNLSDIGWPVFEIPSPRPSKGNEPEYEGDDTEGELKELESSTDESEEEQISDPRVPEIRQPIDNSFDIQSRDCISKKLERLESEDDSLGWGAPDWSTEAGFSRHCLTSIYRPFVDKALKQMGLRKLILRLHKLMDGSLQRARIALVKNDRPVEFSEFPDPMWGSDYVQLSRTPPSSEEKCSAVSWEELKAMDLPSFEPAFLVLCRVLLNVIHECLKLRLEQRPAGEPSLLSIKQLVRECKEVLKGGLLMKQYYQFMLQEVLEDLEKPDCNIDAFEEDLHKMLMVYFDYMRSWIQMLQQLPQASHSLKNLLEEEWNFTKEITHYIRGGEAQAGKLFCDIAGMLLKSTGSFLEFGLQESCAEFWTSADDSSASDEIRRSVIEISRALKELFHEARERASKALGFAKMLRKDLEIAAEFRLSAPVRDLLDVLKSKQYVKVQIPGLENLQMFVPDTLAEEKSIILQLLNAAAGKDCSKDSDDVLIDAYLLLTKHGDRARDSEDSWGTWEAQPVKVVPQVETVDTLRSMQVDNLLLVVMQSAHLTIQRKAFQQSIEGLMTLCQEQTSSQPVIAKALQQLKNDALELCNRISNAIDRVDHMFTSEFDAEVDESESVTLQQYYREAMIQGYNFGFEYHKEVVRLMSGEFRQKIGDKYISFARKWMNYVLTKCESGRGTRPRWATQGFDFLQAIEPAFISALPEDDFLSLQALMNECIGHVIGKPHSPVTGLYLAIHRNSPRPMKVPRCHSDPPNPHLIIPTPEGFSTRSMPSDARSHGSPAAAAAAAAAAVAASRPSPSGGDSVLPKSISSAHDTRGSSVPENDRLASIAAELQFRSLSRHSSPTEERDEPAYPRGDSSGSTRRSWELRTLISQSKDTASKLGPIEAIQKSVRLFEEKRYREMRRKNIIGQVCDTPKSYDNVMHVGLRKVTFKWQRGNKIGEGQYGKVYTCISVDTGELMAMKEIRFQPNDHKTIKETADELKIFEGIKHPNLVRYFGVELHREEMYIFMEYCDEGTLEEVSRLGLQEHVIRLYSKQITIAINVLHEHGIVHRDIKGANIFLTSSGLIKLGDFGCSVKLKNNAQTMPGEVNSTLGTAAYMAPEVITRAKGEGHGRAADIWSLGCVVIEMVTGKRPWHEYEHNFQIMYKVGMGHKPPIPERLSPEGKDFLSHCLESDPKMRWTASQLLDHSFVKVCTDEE

[5] = target: Mitogen-activated protein kinase kinase kinase 1 (Homo sapiens, UniProt Q13233)
[6] = target: Calcium/calmodulin-dependent protein kinase type II subunit delta (Homo sapiens, UniProt Q13557)
[7] = target: Calcium/calmodulin-dependent protein kinase kinase 2 (Homo sapiens, UniProt Q96RR4)
Chain of Calcium/calmodulin-dependent protein kinase kinase 2 (Q96RR4 whole entry): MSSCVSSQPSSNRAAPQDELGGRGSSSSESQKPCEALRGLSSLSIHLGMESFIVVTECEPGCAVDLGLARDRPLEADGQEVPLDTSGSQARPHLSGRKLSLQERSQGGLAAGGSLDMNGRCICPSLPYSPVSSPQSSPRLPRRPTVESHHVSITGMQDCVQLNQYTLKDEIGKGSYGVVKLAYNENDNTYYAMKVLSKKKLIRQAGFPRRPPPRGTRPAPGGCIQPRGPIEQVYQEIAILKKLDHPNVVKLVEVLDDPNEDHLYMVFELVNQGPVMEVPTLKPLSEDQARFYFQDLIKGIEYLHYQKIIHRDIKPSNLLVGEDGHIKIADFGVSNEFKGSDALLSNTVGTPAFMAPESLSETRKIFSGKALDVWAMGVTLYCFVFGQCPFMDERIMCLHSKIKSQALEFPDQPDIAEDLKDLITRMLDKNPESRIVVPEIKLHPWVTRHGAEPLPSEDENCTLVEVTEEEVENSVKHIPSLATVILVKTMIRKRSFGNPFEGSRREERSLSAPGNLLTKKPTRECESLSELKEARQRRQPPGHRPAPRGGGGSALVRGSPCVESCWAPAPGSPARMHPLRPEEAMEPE

Activin receptor type-1B = target: T3, Activin receptor type-1B (Homo sapiens, UniProt P36896)
T3 sequence (P36896 whole entry): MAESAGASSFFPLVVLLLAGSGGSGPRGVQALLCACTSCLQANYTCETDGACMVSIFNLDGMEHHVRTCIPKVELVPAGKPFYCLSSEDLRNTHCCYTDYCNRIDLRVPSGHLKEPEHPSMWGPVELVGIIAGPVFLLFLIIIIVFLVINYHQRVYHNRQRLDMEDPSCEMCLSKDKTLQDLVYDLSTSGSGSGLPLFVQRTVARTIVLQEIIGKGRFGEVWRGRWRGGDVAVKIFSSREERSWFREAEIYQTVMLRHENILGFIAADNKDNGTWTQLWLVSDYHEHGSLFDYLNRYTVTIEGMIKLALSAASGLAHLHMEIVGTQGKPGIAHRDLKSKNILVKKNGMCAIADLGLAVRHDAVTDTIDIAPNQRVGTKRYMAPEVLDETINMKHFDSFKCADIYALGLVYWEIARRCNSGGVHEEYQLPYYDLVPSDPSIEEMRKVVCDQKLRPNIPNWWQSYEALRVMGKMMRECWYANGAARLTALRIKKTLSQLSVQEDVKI

Ephrin type-A receptor 5 = Ephrin type-A receptor 5 (Homo sapiens, UniProt P54756)

Kd [1]	Kd (Myosin-14)	Kd [2]	Kd [3]	Kd [4]	Kd [5]	Kd [6]	Kd [7]	Kd (Activin receptor type-1B)	Kd (Ephrin type-A receptor 5)	Compound
> 30 µM (inactive)	–	> 30 µM (inactive)	> 30 µM (inactive)	> 30 µM (inactive)	> 30 µM (inactive)	> 30 µM (inactive)	> 30 µM (inactive)	> 30 µM (inactive)	> 30 µM (inactive)	CCOc1ccn(-c2ccc(F)cc2)c(=O)c1C(=O)Nc1ccc(Oc2ccnc(N)c2Cl)c(F)c1 [BMS-777607]
> 30 µM (inactive)	> 30 µM (inactive)	–	> 30 µM (inactive)	> 30 µM (inactive)	> 30 µM (inactive)	> 30 µM (inactive)	> 30 µM (inactive)	> 30 µM (inactive)	> 30 µM (inactive)	Cn1c(=O)c(F)c(Nc2ccc(I)cc2F)c2c(=O)n(C[C@@H](O)CO)cnc21 [TAK-733]

More lines, now with the values behind:

Compound	Kd [1]	Kd (Myosin-14)	Kd [2]	Kd [3]	Kd [4]	Kd [5]	Kd [6]	Kd [7]	Kd (Activin receptor type-1B)	Kd (Ephrin type-A receptor 5)
CN(C)C/C=C/C(=O)Nc1cc2c(Nc3ccc(F)c(Cl)c3)ncnc2cc1O[C@H]1CCOC1 [AFATINIB]	> 30 µM (inactive)	> 30 µM (inactive)	> 30 µM (inactive)	–	–	–	–	–	–	–
COc1cc2c(Oc3ccc4[nH]c(C)cc4c3F)ncnc2cc1OCCCN1CCCC1 [CEDIRANIB]	> 30 µM (inactive)	> 30 µM (inactive)	0.008 µM	–	–	–	–	–	–	–
N#CCNC(=O)c1ccc(-c2ccnc(Nc3ccc(N4CCOCC4)cc3)n2)cc1 [MOMELOTINIB]	> 30 µM (inactive)	> 30 µM (inactive)	> 30 µM (inactive)	> 30 µM (inactive)	> 30 µM (inactive)	> 30 µM (inactive)	–	> 30 µM (inactive)	> 30 µM (inactive)	> 30 µM (inactive)
CC1(C)CNc2cc(NC(=O)c3cccnc3NCc3ccncc3)ccc21 [MOTESANIB]	> 30 µM (inactive)	–	> 30 µM (inactive)	–	–	–	–	–	–	–
FC(F)(F)c1ccc(CNc2ccc(Cc3c[nH]c4ncc(Cl)cc34)cn2)cn1 [PEXIDARTINIB]	> 30 µM (inactive)	–	> 30 µM (inactive)	> 30 µM (inactive)	> 30 µM (inactive)	> 30 µM (inactive)	> 30 µM (inactive)	> 30 µM (inactive)	> 30 µM (inactive)	> 30 µM (inactive)
CN(c1ncccc1CNc1nc(Nc2ccc3c(c2)CC(=O)N3)ncc1C(F)(F)F)S(C)(=O)=O [PF-00562271]	> 30 µM (inactive)	> 30 µM (inactive)	> 30 µM (inactive)	> 30 µM (inactive)	> 30 µM (inactive)	> 30 µM (inactive)	–	–	> 30 µM (inactive)	> 30 µM (inactive)
CC(C)CC(=O)Nc1[nH]nc2c1CN(C(=O)C1CCN(C)CC1)C2(C)C [PHA-793887]	> 30 µM (inactive)	> 30 µM (inactive)	–	> 30 µM (inactive)	> 30 µM (inactive)	> 30 µM (inactive)	> 30 µM (inactive)	> 30 µM (inactive)	> 30 µM (inactive)	> 30 µM (inactive)
C=CC(=O)Nc1cccc(Nc2nc(Nc3ccc(N4CCN(C(C)=O)CC4)cc3OC)ncc2C(F)(F)F)c1 [ROCILETINIB]	> 30 µM (inactive)	> 30 µM (inactive)	–	> 30 µM (inactive)	> 30 µM (inactive)	> 30 µM (inactive)	> 30 µM (inactive)	> 30 µM (inactive)	> 30 µM (inactive)	> 30 µM (inactive)
Cn1cnc2c(F)c(Nc3ccc(Br)cc3Cl)c(C(=O)NOCCO)cc21 [SELUMETINIB]	> 30 µM (inactive)	> 30 µM (inactive)	> 30 µM (inactive)	–	–	–	–	–	–	–
O=C(O)c1ccc2c(c1)nc(Nc1cccc(Cl)c1)c1ccncc12 [SILMITASERTIB]	> 30 µM (inactive)	> 30 µM (inactive)	–	> 30 µM (inactive)	> 30 µM (inactive)	> 30 µM (inactive)	> 30 µM (inactive)	> 30 µM (inactive)	> 30 µM (inactive)	> 30 µM (inactive)
COc1cc2c(N3CCN(C(=O)Nc4ccc(OC(C)C)cc4)CC3)ncnc2cc1OCCCN1CCCCC1 [TANDUTINIB]	> 30 µM (inactive)	> 30 µM (inactive)	> 30 µM (inactive)	–	–	–	–	–	–	–
